Measurements: patent publication US6703409B2, “2′-Halo-3′,5′-dialkoxyphen-1′-yl-imino-2-imidazolidine and the use thereof as a drug” (Boehringer Ingelheim Pharma GmbH & Co KG, priority 2002, dated 2004)

Key:
[1] = test system: isolated dog femoral artery; test: Maximum contraction in the isolated dog femoral artery compared with noradrenaline; settings: as percentage of contraction compared with noradrenaline
Description: (§1) The maximum contraction in the isolated dog femoral artery and the human urethra are given as percentages of contraction compared with noradrenaline.

human urethra = test: Maximum contraction in the human urethra compared with noradrenaline; settings: as percentage of contraction compared with noradrenaline
Description: as §1

CYP2D6 = CYP2D6 (Homo sapiens, UniProt P10635); test: Metabolism by the enzyme CYP2D6; type: in vitro ADME; settings: CYP2D6, after 30 minutes
CYP2D6, sequence (P10635 whole entry, species assumed): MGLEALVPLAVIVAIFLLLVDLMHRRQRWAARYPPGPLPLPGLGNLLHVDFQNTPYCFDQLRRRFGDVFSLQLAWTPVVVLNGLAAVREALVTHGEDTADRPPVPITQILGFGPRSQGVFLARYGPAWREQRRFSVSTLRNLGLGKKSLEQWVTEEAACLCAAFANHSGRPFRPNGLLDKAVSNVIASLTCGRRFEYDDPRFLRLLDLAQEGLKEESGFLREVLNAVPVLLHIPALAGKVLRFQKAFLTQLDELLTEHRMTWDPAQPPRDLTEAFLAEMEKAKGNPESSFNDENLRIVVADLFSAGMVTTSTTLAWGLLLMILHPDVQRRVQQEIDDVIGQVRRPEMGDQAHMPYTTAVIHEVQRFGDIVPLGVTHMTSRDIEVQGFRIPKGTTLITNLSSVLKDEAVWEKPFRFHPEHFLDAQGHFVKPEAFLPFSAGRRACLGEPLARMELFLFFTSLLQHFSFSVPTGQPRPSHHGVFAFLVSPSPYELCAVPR
Method: To determine the metabolism the enzyme CYP2D6 was reacted with 2′-Chloro-3′,5′-dimethoxyphen-1′-yl-imino-2-imidazolidine. After 30 minutes 2.4% of the substance had been broken down by the enzyme.

COc1cc(N=C2NCCN2)c(Cl)c(OC)c1 [2′-chloro-3′,5′-dimethoxyphen-1′-yl-imino-2-imidazolidine]
activity in the dog [1]: 65%
activity on human urethra (human urethra): 66.2%
substance broken down by the enzyme (CYP2D6): 2.4%
